Results published in article PMC11249953, “c-KIT inhibitors reduce pathology and improve behavior in the Tg(SwDI) model of Alzheimer’s disease” (Life Science Alliance, 2024).

Assays:
[1] = biological target: T1, RIOK3 (Homo sapiens, UniProt O14730); assay: KINOMEscan competition binding, RIOK3; conditions: 10 µM compound; for remaining binding at 10 µM: lower = stronger binding, read-out: RIOK3 %Ctrl @ 10000nM (POC)
T1 construct: DNA label for qPCR read-out (T7 phage fusion or DNA tag); purchased Eurofins DiscoverX Corporation; host or cells: T7 phage in E. coli (BL21-derived) or HEK-293
T1 sequence (O14730 1-519): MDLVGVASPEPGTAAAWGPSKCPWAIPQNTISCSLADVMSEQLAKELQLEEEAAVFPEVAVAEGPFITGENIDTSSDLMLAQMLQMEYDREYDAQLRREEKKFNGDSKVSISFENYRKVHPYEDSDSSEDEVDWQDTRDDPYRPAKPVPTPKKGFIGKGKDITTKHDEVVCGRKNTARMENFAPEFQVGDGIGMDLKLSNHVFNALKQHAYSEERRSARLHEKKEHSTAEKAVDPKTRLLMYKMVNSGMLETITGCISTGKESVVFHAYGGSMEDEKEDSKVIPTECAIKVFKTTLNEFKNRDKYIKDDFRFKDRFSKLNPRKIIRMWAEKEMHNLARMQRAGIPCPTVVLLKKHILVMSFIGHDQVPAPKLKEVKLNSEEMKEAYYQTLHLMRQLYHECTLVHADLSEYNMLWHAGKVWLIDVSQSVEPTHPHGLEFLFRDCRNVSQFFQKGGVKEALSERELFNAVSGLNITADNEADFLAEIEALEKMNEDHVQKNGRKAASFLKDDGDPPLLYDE
Procedure: The KINOMEscan screening platform (Eurofins DiscoverX Corporation) was performed using active site-directed competition binding assay to quantitatively measure interactions between BK40143 and BK40197 and more than 450 human kinases and disease relevant mutant variants. […] Screening “hits” are identified by measuring the amount of kinase captured in test (BK40143 and BK40197) versus control samples by using a quantitative and ultra-sensitive qRT-PCR method that detects the associated DNA label. BK40143 and BK40197 were screened at 10 µM concentration, and results for primary screen binding interactions were reported as “% Ctrl” (POC), where lower numbers indicate stronger hits and calculated as follows: [test compound signal−positive control signal/negative control signal−positive control signal]×100
negative control = DMSO (100% Ctrl)
positive control = control compound (0% Ctrl)
Based on screening data from of profiled compounds, a proportional relationship between primary screening results and corresponding compound/target affinities can be described as binding constants (Kd values) for the indicated ranges of POC values with tighter binding (higher affinity) interactions associated with lower POC values and weaker binding (lower affinity) associated with higher POC values. Briefly, kinase-tagged T7 phage strains were grown in parallel in 24-well blocks in an E. coli host derived from the BL21 strain. E. coli were grown to log-phase and infected with T7 phage from a frozen stock (multiplicity of infection = 0.4) and incubated with shaking at 32°C until lysis (90–150 min). The lysates were centrifuged (6,000g) and filtered (0.2 μm) to remove cell debris. The remaining kinases were produced in HEK-293 cells and subsequently tagged with DNA for qRT-PCR detection. Streptavidin-coated magnetic beads were treated with biotinylated small molecule ligands for 30 min at RT to generate affinity resins for kinase assays. The liganded beads were blocked with excess biotin and washed with blocking buffer (1% BSA, 0.05% Tween 20, 1 mM DTT; SeaBlock [Pierce]) to remove unbound ligand and to reduce non-specific phage binding. Binding reactions were assembled by combining kinases, liganded affinity beads, and test compounds in 1x binding buffer (20% 0.17x PBS, 0.05% Tween 20, 6 mM DTT; SeaBlock). Test compounds were prepared as 100x stocks in 100% DMSO and directly diluted into the assay. All reactions were performed in polypropylene 384-well plates in a final volume of 0.02 ml. The assay plates were incubated at RT with shaking for 1 h and the affinity beads were washed with wash buffer (1x PBS, 0.05% Tween 20). […] The kinase concentration in the eluates was measured by qRT-PCR.

[2] = tested on: WT mice (C57BL/6); assay: Drug tolerability assessment (multiple ascending dose); format: in vivo; conditions: for maximum tolerable dose: IP daily, multiple ascending dose, WT mice; for therapeutic safe dose in animals: both, C57BL/6, mouse
Procedure: 3–4-mo-old WT mice (male and female, C57BL/6) were IP injected with starting doses of 10 mg/kg of BK40143 or BK40197 daily for 5 d before a 2-d washout period. […] BK40197 dosage was increased in 10 mg/kg increments for 5 d each until the maximum tolerable dose of 50 mg/kg was reached. All animal work was approved by GUACUC.

[3] = tested on: beclin-1 in TgAPP mice; assay: Western blot for beclin-1 in brain; format: in vivo, mouse; conditions: BK40143 5 mg/kg, BK40197 45 mg/kg, vs DMSO
Procedure: Brain hemispheres from treated and untreated animals were lysed in 1x STEN buffer and protein concentrations were measured via BCA assay. Samples were normalized to 1 μg/μl and added to 2x Laemmli loading buffer + β-mercaptoethanol and boiled for 10 min to denature the protein. 15 μg of sample were then loaded in 4–12% Bis–Tris gels with MES buffer and electrophoresed, before transfer to a nitrocellulose membrane, where they were blocked with 5% dry milk in 1x TBST and incubated overnight with an anti-Beclin-1 primary antibody (cat. #3739S; Cell Signaling) or a phospho-c-KIT antibody (cat. #44-496G; Invitrogen). The next day, the membrane was washed and treated for 1 h with a goat anti-rabbit HRP-linked secondary followed by SuperSignal West Dura Extended Duration Substrate (cat. #37071; Thermo Fisher Scientific) and imaged on an Amersham Imager 600. This procedure was repeated the next day with an anti-mouse actin primary as a loading control.

[4] = tested on: amyloid-beta in TgAPP mice; assay: ELISA for amyloid-beta in brain lysates; format: in vivo, mouse; conditions: vs DMSO
Procedure: All samples were analyzed in parallel using the same reagents. A total of 25 μl soluble protein was incubated overnight at 4°C with 25 μl of a mixed bead solution. After washing, samples were incubated with 25 μl detection antibody solution for 1.5 h at RT. Streptavidin–phycoerythrin (25 μl) was added to each well containing the 25 μl of detection antibody solution. Samples were then washed and suspended in 100 μl of sheath fluid. Samples were then run on MAGPIX with Xponent software. The median fluorescent intensity data were analyzed using a five-parameter logistic or spline curve-fitting method for calculating analyte concentrations in samples. Specific pTau ser396 (KHB7031; Invitrogen), aggregated Aβ (KHB3491; Thermo Fisher Scientific), and Aβ42 (KHB3442; Invitrogen) were performed according to manufacturer’s protocol on tissue soluble extracts from brain lysates in 1XSTEN buffer.

Compound	inhibition at 10 µM [1] [%]	remaining binding at 10 µM [1] [%]	maximum tolerable dose [2] [mg/kg]	therapeutic safe dose in animals ([2]; in vivo)	tolerability at starting dose ([2]; mouse, in vivo)	beclin-1 levels in brain (Western blot) [3]	Aβ concentration in brain lysate (ELISA) [4]
Cc1cccc(-c2cc3nccc(Nc4ccccc4)c3s2)c1 [BK40143]	80	20	7.5	up to 7.5 mg/kg	rodent mortality	significant increases in levels of beclin-1	significantly reduced Aβ and pTau (396) concentrations
Cc1cccc(-c2cc3nccc(N4CCOCC4)c3s2)c1 [BK40197]	95.2	4.8	45	≤ 45 mg/kg		significant increases in levels of beclin-1	significantly reduced Aβ and pTau (396) concentrations
